In ChEMBL document CHEMBL5665443, “Enzyme Inhibitor Single Concentration assay results for EUbOPEN Chemogenomics Library” (2024):

Assays:
Conditions in all cases: Hit No
[1] = target: G/T mismatch-specific thymine DNA glycosylase (Homo sapiens) (UniProt Q13569);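 note: human TDG cleavage of quenched duplex DNA oligonucleotides coupled to APE1, strand release read as fluorescence at 594 nm, inhibition of TDG activity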
Description: Inhibition of TDG by quantifying inhibition of TDG-mediated cleavage and dissociation of quenched duplex DNA oligonucleotides, measured as fluorescence at 594 nm. To generate a functional strand incision and increase turn-over this assay is coupled to APE1.

[2] = target: T1, Endonuclease 8-like 2 (Homo sapiens) (UniProt Q969S2);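 note: fluorescence at 594 nm reports NEIL2 cutting and release of a quenched double-stranded DNA oligo substrate, reduced signal read as inhibition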
T1 sequence (whole entry): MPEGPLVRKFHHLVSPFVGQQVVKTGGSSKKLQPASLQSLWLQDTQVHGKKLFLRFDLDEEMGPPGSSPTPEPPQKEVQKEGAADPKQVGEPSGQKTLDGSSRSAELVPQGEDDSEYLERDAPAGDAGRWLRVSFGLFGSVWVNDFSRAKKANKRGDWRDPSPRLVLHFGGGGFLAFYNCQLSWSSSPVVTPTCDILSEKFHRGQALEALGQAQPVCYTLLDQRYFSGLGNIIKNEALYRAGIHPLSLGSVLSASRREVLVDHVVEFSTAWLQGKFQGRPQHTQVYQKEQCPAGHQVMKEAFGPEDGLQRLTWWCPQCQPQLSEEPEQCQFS
Description: Inhibition of NEIL2 by quantifying inhibition of NEIL2-mediated cleavage and dissociation of quenched duplex DNA oligonucleotides, measured as fluorescence at 594 nm.

[3] = target: Uracil-DNA glycosylase (Homo sapiens) (UniProt P13051);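 note: UNG excision on a quenched double-stranded DNA oligo probe, with APE1 added for strand incision and turnover, read as fluorescence at 594 nm as strands separate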
Sequence of Uracil-DNA glycosylase (Homo sapiens) (P13051 whole entry, the tested form may be a part): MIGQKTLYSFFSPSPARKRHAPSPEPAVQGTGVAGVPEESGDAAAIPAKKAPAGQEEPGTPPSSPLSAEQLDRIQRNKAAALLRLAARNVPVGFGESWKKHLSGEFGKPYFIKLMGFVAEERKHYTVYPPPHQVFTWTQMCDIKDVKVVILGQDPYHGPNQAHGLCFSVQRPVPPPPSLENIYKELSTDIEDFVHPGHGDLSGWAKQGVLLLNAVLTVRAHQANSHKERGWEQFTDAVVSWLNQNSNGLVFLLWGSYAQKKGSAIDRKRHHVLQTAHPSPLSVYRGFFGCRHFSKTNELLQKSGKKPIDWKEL
Description: Inhibition of UNG by quantifying inhibition of UNG-mediated cleavage and dissociation of quenched duplex DNA oligonucleotides, measured as fluorescence at 594 nm. To generate a functional strand incision and increase turn-over this assay is coupled to APE1.

[4] = target: Methyl-CpG-binding domain protein 4 (Homo sapiens) (UniProt O95243);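 note: MBD4 activity read as fluorescence at 594 nm from cleavage and release of a quenched duplex DNA oligonucleotide, with APE1 coupled to incise the strand and raise turnover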
Sequence of Methyl-CpG-binding domain protein 4 (Homo sapiens) (O95243 whole entry, the tested form may be a part): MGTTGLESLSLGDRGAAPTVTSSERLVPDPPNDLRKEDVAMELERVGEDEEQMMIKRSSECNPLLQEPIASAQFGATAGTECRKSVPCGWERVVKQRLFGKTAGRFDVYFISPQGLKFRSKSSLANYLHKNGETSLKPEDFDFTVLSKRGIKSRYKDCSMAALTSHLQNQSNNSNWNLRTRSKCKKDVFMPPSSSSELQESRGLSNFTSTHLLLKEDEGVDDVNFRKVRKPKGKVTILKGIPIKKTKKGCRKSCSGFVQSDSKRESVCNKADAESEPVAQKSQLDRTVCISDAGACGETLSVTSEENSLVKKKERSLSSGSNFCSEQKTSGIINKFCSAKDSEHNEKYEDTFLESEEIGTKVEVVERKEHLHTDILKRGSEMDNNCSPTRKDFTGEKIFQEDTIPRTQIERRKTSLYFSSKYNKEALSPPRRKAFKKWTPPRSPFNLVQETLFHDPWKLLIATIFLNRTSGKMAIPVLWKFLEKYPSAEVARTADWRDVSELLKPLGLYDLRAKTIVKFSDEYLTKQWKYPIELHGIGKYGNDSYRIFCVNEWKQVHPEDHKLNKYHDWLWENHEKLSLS
Description: Inhibition of MBD4 by quantifying inhibition of MBD4-mediated cleavage and dissociation of quenched duplex DNA oligonucleotides, measured as fluorescence at 594 nm. To generate a functional strand incision and increase turn-over this assay is coupled to APE1.

[5] = target: T2, Adenine DNA glycosylase (Homo sapiens) (UniProt Q9UIF7);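 note: human MUTYH activity read as 594 nm fluorescence from cleavage and release of a quenched DNA duplex, coupled with APE1 for strand incision, lower signal meaning inhibition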
T2 sequence (whole entry): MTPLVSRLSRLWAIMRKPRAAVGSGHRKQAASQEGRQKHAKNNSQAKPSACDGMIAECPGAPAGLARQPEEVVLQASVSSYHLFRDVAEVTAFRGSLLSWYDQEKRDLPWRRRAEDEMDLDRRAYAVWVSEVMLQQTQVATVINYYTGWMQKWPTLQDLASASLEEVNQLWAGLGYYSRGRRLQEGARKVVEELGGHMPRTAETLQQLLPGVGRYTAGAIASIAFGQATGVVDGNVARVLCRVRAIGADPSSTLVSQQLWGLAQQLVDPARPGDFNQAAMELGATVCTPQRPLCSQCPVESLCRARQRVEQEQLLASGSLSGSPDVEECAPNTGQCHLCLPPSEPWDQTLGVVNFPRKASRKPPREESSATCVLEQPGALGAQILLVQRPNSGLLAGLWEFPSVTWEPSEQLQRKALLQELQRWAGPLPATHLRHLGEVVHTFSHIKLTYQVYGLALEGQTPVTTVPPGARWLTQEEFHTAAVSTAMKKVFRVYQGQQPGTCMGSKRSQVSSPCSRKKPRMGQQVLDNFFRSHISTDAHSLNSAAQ
Description: Inhibition of MUTYH by quantifying inhibition of MUTYH-mediated cleavage and dissociation of quenched duplex DNA oligonucleotides, measured as fluorescence at 594 nm. To generate a functional strand incision and increase turn-over this assay is coupled to APE1.

[6] = target: N-glycosylase/DNA lyase (Homo sapiens) (UniProt O15527);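 note: OGG1 cleavage of a quenched duplex DNA oligonucleotide, coupled to APE1 for strand incision, read as fluorescence at 594 nm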
Sequence of N-glycosylase/DNA lyase (Homo sapiens) (O15527 whole entry): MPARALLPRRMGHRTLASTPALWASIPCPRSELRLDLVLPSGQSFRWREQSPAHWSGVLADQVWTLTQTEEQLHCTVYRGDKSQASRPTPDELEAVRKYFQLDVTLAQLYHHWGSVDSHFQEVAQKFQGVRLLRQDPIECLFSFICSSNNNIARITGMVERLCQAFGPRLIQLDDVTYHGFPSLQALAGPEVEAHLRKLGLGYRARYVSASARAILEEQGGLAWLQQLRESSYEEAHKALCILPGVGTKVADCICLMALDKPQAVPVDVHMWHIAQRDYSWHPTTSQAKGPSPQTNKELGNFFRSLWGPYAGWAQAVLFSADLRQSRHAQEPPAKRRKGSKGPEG
Description: Inhibition of OGG1 by quantifying inhibition of OGG1-mediated cleavage and dissociation of quenched duplex DNA oligonucleotides, measured as fluorescence at 594 nm. To generate a functional strand incision and increase turn-over this assay is coupled to APE1.

[7] = target: T3, Single-strand selective monofunctional uracil DNA glycosylase (Homo sapiens) (UniProt Q53HV7);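 note: enzymatic SMUG1 assay coupled with APE1, reading fluorescence at 594 nm released when a quenched double-stranded DNA oligonucleotide substrate is cleaved and separated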
T3 sequence (whole entry): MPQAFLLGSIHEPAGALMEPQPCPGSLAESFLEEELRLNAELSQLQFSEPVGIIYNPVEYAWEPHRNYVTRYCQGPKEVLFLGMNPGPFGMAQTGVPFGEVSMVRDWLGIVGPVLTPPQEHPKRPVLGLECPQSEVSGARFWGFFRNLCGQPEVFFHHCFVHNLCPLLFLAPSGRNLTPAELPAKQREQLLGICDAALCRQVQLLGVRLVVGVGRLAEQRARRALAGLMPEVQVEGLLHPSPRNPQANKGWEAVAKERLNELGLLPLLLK
Description: Inhibition of SMUG1 by quantifying inhibition of SMUG1-mediated cleavage and dissociation of quenched duplex DNA oligonucleotides, measured as fluorescence at 594 nm. To generate a functional strand incision and increase turn-over this assay is coupled to APE1.

[8] = target: Endonuclease 8-like 1 (Homo sapiens) (UniProt Q96FI4);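 note: fluorescence at 594 nm from quenched duplex DNA oligonucleotides released by NEIL1 cleavage and strand separation, reported as reduction of this enzyme activity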
Sequence of Endonuclease 8-like 1 (Homo sapiens) (Q96FI4 whole entry): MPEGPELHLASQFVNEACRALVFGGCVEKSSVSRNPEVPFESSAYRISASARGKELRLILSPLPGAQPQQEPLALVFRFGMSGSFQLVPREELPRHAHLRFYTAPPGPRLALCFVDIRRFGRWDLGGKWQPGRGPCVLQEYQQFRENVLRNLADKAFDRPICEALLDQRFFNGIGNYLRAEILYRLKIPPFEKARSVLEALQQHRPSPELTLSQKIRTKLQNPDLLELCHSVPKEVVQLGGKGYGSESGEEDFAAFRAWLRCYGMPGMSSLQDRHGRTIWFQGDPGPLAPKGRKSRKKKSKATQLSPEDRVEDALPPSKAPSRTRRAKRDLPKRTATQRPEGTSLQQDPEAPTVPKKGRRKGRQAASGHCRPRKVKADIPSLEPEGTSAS
Description: Inhibition of NEIL1 by quantifying inhibition of NEIL1-mediated cleavage and dissociation of quenched duplex DNA oligonucleotides, measured as fluorescence at 594 nm.

[9] = Compound Concentration 10.0 uM, tested as the 2H-labelled form

Sequence of G/T mismatch-specific thymine DNA glycosylase (Homo sapiens) (Q13569 whole entry): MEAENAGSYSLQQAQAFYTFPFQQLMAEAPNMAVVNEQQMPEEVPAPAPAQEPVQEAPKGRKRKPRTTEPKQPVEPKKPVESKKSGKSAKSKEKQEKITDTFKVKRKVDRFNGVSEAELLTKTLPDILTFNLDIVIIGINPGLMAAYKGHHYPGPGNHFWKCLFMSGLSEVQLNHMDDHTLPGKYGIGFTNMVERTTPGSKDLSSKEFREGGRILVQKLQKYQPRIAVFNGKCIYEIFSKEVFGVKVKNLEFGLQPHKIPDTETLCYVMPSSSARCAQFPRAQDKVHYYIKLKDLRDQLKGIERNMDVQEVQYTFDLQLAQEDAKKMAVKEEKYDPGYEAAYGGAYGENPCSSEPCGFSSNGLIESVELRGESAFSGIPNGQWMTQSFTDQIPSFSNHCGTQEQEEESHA

Compound	inhibition ([1]; Compound Concentration 10.0 uM) [%]	inhibition ([2]; Compound Concentration 10.0 uM) [%]	inhibition ([3]; Compound Concentration 10.0 uM) [%]	inhibition ([4]; Compound Concentration 10.0 uM) [%]	inhibition ([5]; Compound Concentration 10.0 uM) [%]	inhibition ([6]; Compound Concentration 10.0 uM) [%]	inhibition ([7]; Compound Concentration 10.0 uM) [%]	inhibition ([1]; Compound Concentration 1.0 uM) [%]	inhibition ([3]; Compound Concentration 1.0 uM) [%]	inhibition ([4]; Compound Concentration 1.0 uM) [%]	inhibition ([5]; Compound Concentration 1.0 uM) [%]	inhibition ([6]; Compound Concentration 1.0 uM) [%]	inhibition ([7]; Compound Concentration 1.0 uM) [%]	other results
Cn1nc(C(F)(F)F)cc1-c1cnc(N2CCc3cc(S(=O)(=O)Nc4c(F)cc(Cl)cc4F)cc(N4CCCC4=O)c32)nc1	53.9	4.87	1.37	59.5	17.9	12.6	9.91	–	–	–	–	–	–	–
O=C(NC[C@@H]1[C@H]2CN(C(=O)OCc3cc(C(F)(F)F)cc(C(F)(F)F)c3)C[C@@H]12)c1ccc2[nH]nnc2c1	43.8	-6.36	-1.24	48.7	-6.99	19.9	8.85	–	–	–	–	–	–	inhibition ([8]; Compound Concentration 10.0 uM): -8.32%
CNC(=O)Nc1ccc2c(c1)[C@@]1(CC2)OC(=O)N(CC(=O)N(Cc2ccc(F)cc2)[C@@H](C)C(F)(F)F)C1=O	–	–	–	–	–	–	–	98.8	4.4	67.4	0.0592	-0.951	22.4	inhibition ([2]; Compound Concentration 1.0 uM): -2.53%; inhibition ([8]; Compound Concentration 1.0 uM): -6.35%
O=S(=O)(Nc1ccc(C(O)(C(F)(F)F)C(F)(F)F)cc1)c1cccs1	99.8	-2.02	4.47	63.6	12.6	9.18	19.9	–	–	–	–	–	–	inhibition ([8]; Compound Concentration 10.0 uM): -9.23%
CCNC(=O)c1cc2c(N3CCOC[C@@H]3C)ccnc2n1C	31.4	-9.42	-0.625	67	-5.18	11.4	6.82	–	–	–	–	–	–	–
Cc1cnc(-c2cc(Cl)ccc2F)cc1-n1c(=O)n(CC(N)=O)c2ccccc21	23.2	–	1.32	36.9	-6.05	-7.14	7.03	–	–	–	–	–	–	inhibition ([8]; Compound Concentration 10.0 uM): -5.78%
CC(=O)c1c(C)c2cnc(Nc3ccc(N4CCNCC4)cn3)nc2n(C2CCCC2)c1=O	–	–	–	–	–	–	–	39.5	3.08	-1.7	37.5	4.49	19.2	inhibition ([2]; Compound Concentration 1.0 uM): 2.12%; inhibition ([8]; Compound Concentration 1.0 uM): 8.59%
OCCOCCN1CCN(C(c2ccccc2)c2ccc(Cl)cc2)CC1 (stereo not given)	3.31	-2.98	-3.83	1.54	-3.56	-2.03	2.34	–	–	–	–	–	–	inhibition ([8]; Compound Concentration 10.0 uM): 4.39%
COc1cc2ncn(-c3cc(OCc4ccccc4C(F)(F)F)c(C(N)=O)s3)c2cc1OC	–	–	–	–	–	–	–	35.1	3.27	6.17	-6.25	0.727	10.2	inhibition ([2]; Compound Concentration 1.0 uM): -8.65%; inhibition ([8]; Compound Concentration 1.0 uM): -7%
O=C(NNS(=O)(=O)c1ccccc1)c1cc(-c2ccnnc2)ccc1F	49.7	5.38	6.08	88.3	0.332	8.54	13.8	–	–	–	–	–	–	inhibition ([8]; Compound Concentration 10.0 uM): -4.38%
CCO[C@@H](Cc1ccc(OCCc2ccc(OS(C)(=O)=O)cc2)cc1)C(=O)O	43.6	-6.87	1.73	65.1	-4.86	7.36	20.9	–	–	–	–	–	–	–
CC[C@H](CO)Nc1nc(NCc2ccccc2)c2ncn(C(C)C)c2n1	38.4	-5.42	0.726	-1.52	-2.91	-9.3	-5.13	–	–	–	–	–	–	inhibition ([8]; Compound Concentration 10.0 uM): 6.48%
O=C(NCc1ncc(C(F)(F)F)cc1Cl)c1ccc2c(c1)C1(CCS(=O)(=O)CC1)[C@H](C1CC1)N2S(=O)(=O)c1ccc(F)cc1	–	–	–	–	–	–	–	38.8	-0.35	59.6	2.13	-6.07	-4	inhibition ([2]; Compound Concentration 1.0 uM): -0.744%
CC1(C)Cn2nc(-c3ccc(F)cn3)c(-c3ccnc4[nH]ncc34)c2CO1	–	–	–	–	–	–	–	–	–	–	–	–	–	inhibition [1, 9]: 99.8%; inhibition [2, 9]: -8.4%; inhibition [3, 9]: 0.65%; inhibition [4, 9]: 55.2%; inhibition [5, 9]: -5.13%; inhibition [6, 9]: -6.31%; inhibition [7, 9]: 12.7%
NC(=O)c1ccc2nc(-c3ccc(C4(N)CCC4)cc3)c(-c3ccccc3)n2n1	–	–	–	–	–	–	–	71.4	3.74	31.7	26.6	4.13	21.7	inhibition ([2]; Compound Concentration 1.0 uM): -7.61%
Cc1nc(-c2cn3c(n2)-c2ccc(-c4cnn(C(C)(C)C(N)=O)c4)cc2OCC3)n(C(C)C)n1	–	–	–	–	–	–	–	60	0.537	-2.34	3.04	1.09	19.2	inhibition ([2]; Compound Concentration 1.0 uM): -7.57%
CCC(=O)N[C@H]1CC[C@@H](C(=O)N(C)c2ccc(-c3nc4ccccc4o3)cc2)C1	41.7	8.7	-2.88	62.4	8.31	-8.13	9.01	–	–	–	–	–	–	–
C[C@@H]1CN(c2ncc(Cl)c(Nc3ccc4c(c3)n(CCC(C)(C)O)c(=O)n4C)n2)C[C@H](C)C1(F)F	57.5	-9.67	9.4	66.3	2.19	-2.08	18	–	–	–	–	–	–	–
N#Cc1ccc(Nc2ccc3[nH]c(=O)[nH]c3c2)c(Cl)c1	–	–	–	–	–	–	–	38.3	1.6	63.1	7.43	-3.21	11.9	–
C[C@@H](NC(=O)Nc1cc2[nH]ncc2c(CO)n1)c1ccccc1	70.5	-3.37	3.78	29.7	3.93	4.45	21.2	–	–	–	–	–	–	–
CC(=O)C1=C(C)N(c2cccc(C(F)(F)F)c2)C(=O)N[C@H]1c1ccc(C#N)nc1	45.5	6.4	-0.968	60.5	-5.95	-1.74	10.2	–	–	–	–	–	–	–
O=C(Nc1cccnn1)N1CC(C/C=C/c2cncc(Oc3ccc(C(F)(F)F)cn3)n2)C1	97.9	–	-1.71	63.3	-2.62	-7.39	18.1	–	–	–	–	–	–	–
O=C(Cc1ccccc1)Nc1nnc(N2C[C@H]3C[C@@H]2CN3c2cccnn2)s1	–	–	–	–	–	–	–	47.1	2.12	62	-1.58	0.672	13.8	inhibition ([8]; Compound Concentration 1.0 uM): 2.13%
COc1cc2c(cc1CC=C(C)C)C(=O)C[C@@H](c1ccc(O)cc1)O2	49.3	-5.59	0.826	61.9	-5.24	19.1	19.4	–	–	–	–	–	–	–
Cc1c(NC(=O)c2cc(C(N)=O)nc3cc(F)ccc23)c(C(F)(F)F)nn1Cc1ccc(C(C)(C)C)cc1	–	–	–	–	–	–	–	55.8	0.116	59.5	11.6	-8.67	16.4	inhibition ([8]; Compound Concentration 1.0 uM): -8.32%
O=C(Nc1ccc(-c2ccnc(Nc3ccc(N4CCOCC4)cc3)n2)cc1)[C@@H]1CCCN1	–	–	–	–	–	–	–	58.2	3.18	-0.777	14.9	1.3	24.9	inhibition ([8]; Compound Concentration 1.0 uM): 5.95%
CCS(=O)(=O)c1cc2cc(C[C@@](O)(CC(C)(C)c3ccc(F)cc3C(N)=O)C(F)(F)F)[nH]c2cn1	–	–	–	–	–	–	–	28.1	-1.88	66.5	-2.67	-3.12	5.35	inhibition ([2]; Compound Concentration 1.0 uM): -6.61%
